Assay results from US20250205265A1, “ASPERULOSIDE AS AN AGENT FOR IMPROVING VASCULAR AND METABOLIC FUNCTION IN OBESITY: ROLE OF NRF2 ACTIVATION” (The Chinese University of Hong Kong, priority 2023, published 2025).

Key:
obese mice livers [1] = assay: ATP levels in obese mice livers; assay type: in vivo
Experimental: (§1) After induction of obesity in C57BL/6 male mice fed with the high-fat diet for twelve weeks, they were treated daily with ASP (50 mg/kg) via oral gavage for seven weeks in vivo study. C57BL/6 mice aortae were used for ex vivo studies. Endothelial cells, HepG2 and primary adipocytes were used for in vitro studies. Vascular function was determined by wire myograph. H&E staining was employed for histological examination. Oil Red O staining was used to determine lipid droplets in tissues and cells. DHE and MitoSOX staining were used to detect ROS levels. QPCR, aortic en-face immunofluorescence staining, and Western blotting were used to analyze mRNA and protein expressions. ARE binding activity was determined by Dual luciferase reporter assay. Small interfering (si)RNA of Nrf2 and HO-1, inhibitors of Nrf2 (ML385, Cat. No.: HY-100523) and HO-1 (OB-24, HY-118487) were used to elucidate the mechanistic pathway of ASP's action.

HepG2 cells [2] = assay: DHE staining of palmitic acid-treated HepG2 cells; assay type: cell-based; conditions: Nrf2-inhibited HepG2 cells
Experimental: as §1

primary adipocytes = assay: Real-time PCR in primary adipocytes; assay type: cell-based, mice
Experimental: Primary adipocytes were treated with ASP overnight. […] Data represent means±SEM of 4 mice. P values were determined using One-way ANOVA. *p<0.05.
Primary adipocytes were treated with 40 μmol/L ASP (FIG. 22A) or different doses of ASP (FIG. 22B) for 24 hours. […] Scale bar, 50 μm (FIG. 22B). Data represent means±SEM of 4 experiments. P values were determined using One-way ANOVA. *p<0.05.
as §1

[3] = tested on: HO-1, SIRT1, SIRT6, and SOD2; assay: Real-time PCR of Nrf2 downstream genes in PA-treated HepG2 cells; assay type: cell-based
Experimental: as §1

HepG2 cells [4] = assay: Oil Red O staining of PA-treated HepG2 cells; assay type: cell-based; conditions: Nrf2-inhibited HepG2 cells
Experimental: as §1

[5] = tested on: Cpt1α, Cpt1β, mitochondrial complex, Pgc1α; assay: Real-time PCR of mitochondrial genes in obese mice livers; assay type: in vivo
Experimental: as §1

VCAM-1 = assay: Real-time PCR of VCAM-1 in aortas of obese mice; assay type: in vivo
Experimental: After induction of obesity in C57BL/6 male mice fed with high fat diet for twelve weeks, they were treated daily with ASP (50 mg/kg) via oral gavage for seven weeks in vivo study. C57BL/6 mice aortae were used for ex vivo study and endothelial cells were used for in vitro study. Vascular function was determined by wire myograph. DHE and MitoSOX staining were used to detect ROS levels. QPCR, aortic en-face immunofluorescence staining, and Western blotting were used to analyze mRNA and protein expressions. Small interfering (si)RNA of Nrf2 and HO-1, inhibitors of Nrf2 (ML385, Cat. No.: HY-100523) and HO-1 (OB-24, HY-118487) were used to elucidate the mechanistic pathway of ASP's action.
as §1, with “QPCR, aortic en-face immunofluorescence staining, and Western blotting were used to analyze mRNA and protein expressions.” left out, “Small interfering (si)RNA of Nrf2 and HO-1, inhibitors of Nrf2 (ML385, Cat. No.: HY-100523) and HO-1 (OB-24, HY-118487) were used to elucidate the mechanistic pathway of ASP's action.” left out

[6] = tested on: adipose tissues of obese mice; assay: Real-time PCR of adipose tissues of obese mice; assay type: in vivo
Experimental: as §1

Nrf2/ARE = assay: Dual-luciferase assay of ARE binding in PA-treated HepG2 cells; assay type: cell-based
Experimental: as §1

obese mice livers [7] = assay: DHE staining of obese mice livers; assay type: in vivo
Experimental: as §1

[8] = 250 μmol/L PA-treated HepG2 cells for 16 hours
[9] = perirenal adipose tissues in obese mice
[10] = visceral adipose tissues in obese mice

How did the ATP levels (obese mice livers [1]) turn out when Asperuloside was run?
Its ATP levels is “increases ATP levels”.

What about the “palmitic acid-induced oxidative stress (DHE staining)” value (HepG2 cells [2]) of the same substance?
The value was “fails to attenuate palmitic acid-induced oxidative stress”.

What about the “mRNA expression levels of Nprc and Cd36” value (primary adipocytes; primary adipocytes treated with ASP overnight) of the same substance?
Its value is “dose-dependently decreases mRNA expression levels of Nprc (FIG. 21A) and Cd36”.

And the “mRNA expression of Nrf2” value (primary adipocytes; primary adipocytes, different doses of ASP for 24 hours)?
Its value is “dose-dependently increases mRNA expression of Nrf2”.

What about the “increase of Nrf2 mRNA expression” value (primary adipocytes; primary adipocytes, worded as embodiment, cf. FIG. 22B) of the same substance?
Its value is “at least 1.2 fold”.

And the “mRNA expression of HO-1, SIRT1, SIRT6, and SOD2” value [3, 8]?
Its value is “dose-dependently increases mRNA expression of HO-1, SIRT1, SIRT6, and SOD2”.

What about the “increase of HO-1 mRNA expression” value ([3]; palmitic acid-impaired HepG2 cells, cf. FIG. 13F) of the same substance?
Its value is “at least 2 fold”.

What about the “PA-induced lipid accumulation (Oil Red O)” value (HepG2 cells [4]) of the same substance?
The value was “fails to alleviate PA-induced lipid accumulation”.

What about the “mRNA expressions of Cpt1α, Cpt1β, mitochondrial complex, and Pgc1α” value [5] of the same substance?
Its value is “reverses these impairments”.

And the “VCAM-1 mRNA expression” value (VCAM-1; aortas of obese mice, real-time PCR)?
Its value is “decreases elevated expression of VCAM-1 and ICAM-1 mRNA”.

And the “reduction of VCAM-1 expression” value (VCAM-1; obese mice aortae, ASP 50 mg/kg oral gavage daily for seven weeks)?
The value was “about 2 fold”.

And the Cd36 upregulation ([6]; perirenal adipose tissues)?
The Cd36 upregulation was “inhibited Cd36 upregulation”.

And the Acox1 expression [6, 9]?
The Acox1 expression was “increased”.

And the Nprc expression [6, 9]?
The Nprc expression was “downregulates Nprc expression”.

What about the “mRNA expression levels of Srebp1 and Acc2” value [6, 9] of the same substance?
Its value is “decreases mRNA expression levels of Srebp1 (FIG. 15A) and Acc2”.

What about the “expression levels of Il-6 and Il-1β” value ([6]; perirenal adipose tissues of obese mice) of the same substance?
The value was “reverses enhanced expression levels of Il-6 (FIG. 16A) and Il-1β”.

What about the Cd36 upregulation ([6]; subcutaneous adipose tissues) of the same substance?
Its Cd36 upregulation is “inhibited Cd36 upregulation”.

What about the Hsl expression ([6]; subcutaneous adipose tissues in obese mice) of the same substance?
Its Hsl expression is “upregulates Hsl expression”.

What about the “expression of F4/80” value ([6]; subcutaneous adipose tissues of obese mice) of the same substance?
The value was “reverses the elevated expression of F4/80”.

What about the Nprc expression [6, 10] of the same substance?
Its Nprc expression is “decreased Nprc expression”.

What about the Tnfα expression [6, 10] of the same substance?
The Tnfα expression was “decreases Tnfα expression”.

What about the “upregulation of Cd11c, Cd11b, and F4/80” value ([6]; visceral adipose tissues of obese mice) of the same substance?
Its value is “suppresses the upregulation of Cd11c (FIG. 20A), Cd11b (FIG. 20B), and F4/80”.

What about the “binding activity of ARE” value (Nrf2/ARE; [8]) of the same substance?
The value was “dose-dependently increases the binding activity of ARE”.

And the “increase of Nrf2/ARE binding” value (Nrf2/ARE; palmitic acid-impaired HepG2 cells, worded as embodiment, cf. FIG. 13E)?
The value was “about 2 fold”.

What about the “oxidative stress (DHE staining)” value (obese mice livers [7]) of the same substance?
The value was “suppresses oxidative stress in obese mice livers”.
